Measured values reported in patent publication US10266544B2, “Aryl substituted aminomethyl spectinomycin analogs as antibacterial agents” (ST. JUDE CHILDREN'S RESEARCH HOSPITAL, INC., priority 2013, dated 2019).
Structures can show the parent of a compound that is named as a salt. Where two headings read alike, the source gives them in different places.

Legend:
Type in all cases: cell-based
[1] = system: Burkholderia cepacia (ATCC 25416); test: MIC determination, microbroth dilution; conditions: Burkholderia cepacia
[2] = system: Streptococcus pneumoniae (R6); test: MIC determination, microbroth dilution
[3] = system: Enterococcus faecalis (ATCC 33186); test: MIC determination, microbroth dilution; conditions: ATCC33186; Enterococcus faecalis (ATCC 33186); read-out: MIC E.f.
[4] = system: Stenotrophomonas maltophilia (ATCC 13637); test: MIC determination, microbroth dilution; conditions: ATCC13637; Stenotrophomonas maltophilia (ATCC 13637); read-out: MIC S.m.
[5] = system: Proteus vulgaris (ATCC 33420); test: MIC determination, microbroth dilution; conditions: ATCC33420
[6] = system: Streptococcus pyogenes (ATCC 700294); test: MIC determination, microbroth dilution; conditions: ATCC700294; Streptococcus pyogenes (ATCC 700294); read-out: MIC S. py.
Yersinia pestis = test: microbe, parasite or virus in culture; conditions: read-out: MIC Y.p.
[7] = system: M. tuberculosis clinical isolates; test: microbe, parasite or virus in culture; conditions: Mycobacterium tuberculosis, H37RV, read-out: MIC H37Rv
E. coli K12 ΔtolC = test: microbe, parasite or virus in culture; conditions: Escherichia coli, read-out: MIC E.c. Δtolc
[8] = system: MRSA, Staphylococcus aureus (NRS70); test: MIC determination, microbroth dilution; conditions: Staphylococcus aureus (NRS70); read-out: MIC MRSA

`CN[C@@H]1[C@H](O)[C@H](NC)[C@H]2O[C@]3(O)[C@H](O[C@@H]2[C@H]1O)O[C@H](C)C[C@@]3(O)CNCc1ccc(F)cc1` [compound 2, 3′-(R)-3′-[(4-fluoro)benzylaminomethyl)]dihydrospectinomycin Trihydrochloride] showed an MIC ([1]; ATCC25416, read-out: MIC B.c., Burkholderia cepacia (ATCC 25416)) greater than 200 µg/mL, an MIC ([1]; ATCC25416, read-out: MIC B.c., Burkholderia cepacia, Table 6) greater than 200 µg/mL and an MIC ([2]; Streptococcus pneumoniae (R6), read-out: MIC S. pn.) of 1.6 to 3.1 µg/mL. The MIC ([2]; Streptococcus pneumoniae, S. pneumoniae R6, Drug Susceptible, read-out: MIC R6) was 3.1 µg/mL, the MIC [3] was 12.5 to 25 µg/mL and the MIC [4] was 25 µg/mL. The MIC [5] was no less than 200 µg/mL, the MIC [6] was 1.6 to 3.1 µg/mL and the MIC (Yersinia pestis) was 100 µg/mL. The MIC [7] was 25 µg/mL, the MIC (E. coli K12 ΔtolC) was 6.3 µg/mL and the MIC [8] was 50 µg/mL.
